From patent US11512079B2, “Heterocycle substituted pyridine derivative antifungal agents” (Amplyx Pharmaceuticals, Inc., priority 2017, dated 2022)
≈ marks a conversion by molar mass, not a printed value.

How the values were obtained:
Format in all cases: cell-based
[1] = system: Aspergillus fumigatus MYA3626; assay: In vitro antifungal assay (Example IX), microdilution broth, MEC; conditions: minimum effective concentration (shortening of hyphae), 35° C., 40-48 h, RPMI1640
Experimental: (§1) Measurement of antifungal activity: […] Candida albicans 90028, Aspergillus fumigatus MYA3626, Rhizomucor pusillus 46342 and Cryptococcus neoformans […] strains were obtained from American Type Culture Collection (ATCC). […] (A. fumigatus) and 35° C. (R. pusillus). Water containing 1% Tween was directly added to the agar plate and gently agitated to wet and remove the Aspergillus conidia. For R. pusillus, water was added to the surface and gently massaged to wet and remove the spores. For both species, the conidia or spores and mycelial fragments were collected, followed by removal of mycelium, conidiophores and large clumps of conidia/spores. The resulting spore suspension was counted and diluted into RPMI1640 medium to adjust to a final suspension of 1-2×10^4 spores/mL. The suspension was used in the MEC measurement as described below. […] The compounds were weighed and DMSO was added to prepare a 10 mg/mL stock. The solutions were mixed by vortexing and sonication at 37° C. for 5-10 mins. The resulting solutions were sterile filtered using a PTFE filter, and aliquoted (12 μL or as needed) and stored at -20° C. Intermediate compound dilutions were prepared in sterile polypropylene tubes in 100% DMSO. […] This was validated by thorough mixing and reading at 600 nm on a microplate reader. The minimum concentration that led to shortening of hyphae as compared to hyphal growth in DMSO control wells was determined as the minimum effective concentration (MEC) for A. fumigatus and R. pusillus (as read for echinocandins). The use of the MIC and MEC endpoints against yeasts and molds, respectively has been described by Pfaller M A, Duncanson F, Messer S A, Moet G J, Jones […]. Antimicrob Agents Chemother. 2011. 55(11):5155-8. In vitro activity of a novel broad-spectrum antifungal, […], tested against Aspergillus spp. determined by CLSI and EUCAST broth microdilution methods. Results are shown in Table 2, and the letters indicate the following ranges in μg/mL: […]

[2] = system: Rhizomucor pusillus 46342; assay: as above; conditions: minimum effective concentration (shortening of hyphae), 35° C., 40-48 h, RPMI1640
Experimental: as §1

[3] = system: Candida albicans 90028; assay: In vitro antifungal assay (Example IX), microdilution broth, MIC; conditions: minimum inhibitory concentration (≥50% inhibition), 35° C., 40-48 h, RPMI1640
Experimental: Measurement of antifungal activity: Antifungal activity of the compounds was evaluated in a microdilution broth assay as per Clinical and Laboratory Standard Institute methodology for yeast (for Candida and Cryptococcus) (1) and molds (for Aspergillus and Rhizomucor) (2). Candida albicans 90028, Aspergillus fumigatus MYA3626, Rhizomucor pusillus 46342 and Cryptococcus neoformans H99 strains were obtained from American Type Culture Collection (ATCC).
Preparation of Fungal Suspension. C. albicans 90028 and C. neoformans H99 strains were streaked from frozen stocks at −80° C. onto Sabouraud Dextrose Agar (SDA) plates. These were allowed to grow for 24 h (C. albicans) and 48 h (C. neoformans) at 35° C. before using them in the assay. 5-6 individual colonies were picked and diluted into sterile water to obtain a fungal suspension. The cell density of the suspension was determined and the culture diluted with RPMI1640 medium to obtain a fungal suspension of 2.5×10^3 cells/mL. The suspension was used in the MIC measurement as described below.
Preparation of Compound Stocks and Intermediate Dilutions: The compounds were weighed and DMSO was added to prepare a 10 mg/mL stock. The solutions were mixed by vortexing and sonication at 37° C. for 5-10 mins. The resulting solutions were sterile filtered using a PTFE filter, and aliquoted (12 μL or as needed) and stored at −20° C. Intermediate compound dilutions were prepared in sterile polypropylene tubes in 100% DMSO. The compound stock solution was first diluted in DMSO to obtain a concentration of […] to 0.19 μg/mL.
MIC/MEC Measurement: 99 μL 1 of the fungal suspension in RPMI1640 prepared as above was added to each well of a 96-well round bottom assay plate. 1 μL of the intermediate compound dilutions (200-0.19 μg/mL) were added to wells of the plate. This led to a 100-fold dilution of the intermediate dilutions resulting in a final compound concentration of 2-0.0019 μg/mL in the plate. 1 μL of DMSO was added to “No drug” control wells. The solutions were mixed by shaking on a plate shaker for 10 mins and plates incubated at 35° C. for 40-48 h (C. albicans, A. fumigatus, R. pusillus) and 72 h (Cryptococcus). […] This was validated by thorough mixing and reading at 600 nm on a microplate reader. The minimum concentration that led to shortening of hyphae as compared to hyphal growth in DMSO control wells was determined as the minimum effective concentration (MEC) for A. fumigatus and R. pusillus (as read for echinocandins). The use of the MIC and MEC endpoints against yeasts and molds, respectively has been described by Pfaller M A, Duncanson F, Messer S A, Moet G J, Jones R N, Castanheira M. Antimicrob Agents Chemother. 2011. 55(11):5155-8. In vitro activity of a novel broad-spectrum antifungal, E1210, tested against Aspergillus spp. determined by CLSI and EUCAST broth microdilution methods. Results are shown in Table 2, and the letters indicate the following ranges in μg/mL: […]

Compound | minimal effective concentration [1] | minimal effective concentration [2] | MIC [3]
N#Cc1cnn(Cc2ccc(Cc3cc(-c4cccnc4N)on3)cc2)c1 [compound 3, 1-(4-((5-(2-aminopyridin-3-yl)isoxazol-3-yl)methyl)benzyl)-1H-pyrazole-4-carbonitrile] | 0.1 to 1 µg/mL | > 1 µg/mL | 0.1 to 1 µg/mL (≈ 0.281 to 2.81 µM)
Nc1ncccc1-c1cc(Cc2ccc(CNc3ncns3)cc2)no1 [compound 6, N-(4-((5-(2-aminopyridin-3-yl)isoxazol-3-yl)methyl)benzyl)-1,2,4-thiadiazol-5-amine] | > 1 µg/mL | > 1 µg/mL | > 1 µg/mL
Nc1ncccc1-c1cc(Cc2ccc(CNc3cnc4[nH]ccc4c3)cc2)no1 [compound 7, N-(4-((5-(2-aminopyridin-3-yl)isoxazol-3-yl)methyl)benzyl)-1H-pyrrolo[2,3-b]pyridin-5-amine] | 0.1 to 1 µg/mL | > 1 µg/mL | 0.1 to 1 µg/mL (≈ 0.252 to 2.52 µM)
Nc1ncccc1-c1cc(Cc2ccc(Cc3ccc4ncnn4c3)cc2)no1 [compound 13, 3-(3-(4-([1,2,4]triazolo[1,5-a]pyridin-6-ylmethyl)benzyl)isoxazol-5-yl)pyridin-2-amine] | 0.1 to 1 µg/mL | > 1 µg/mL | 0.1 to 1 µg/mL (≈ 0.261 to 2.61 µM)
CC(C)Cn1cc(Cc2ccc(Cc3cc(-c4cccnc4N)on3)cc2)cn1 [compound 16, 3-(3-(4-((1-isobutyl-1H-pyrazol-4-yl)methyl)benzyl)isoxazol-5-yl)pyridin-2-amine] | 0.1 to 1 µg/mL | 0.1 to 1 µg/mL | 0.1 to 1 µg/mL (≈ 0.258 to 2.58 µM)
Nc1ncccc1-c1cc(Cc2ccc(Cc3cncnc3)cc2)no1 [compound 21, 3-(3-(4-(pyrimidin-5-ylmethyl)benzyl)isoxazol-5-yl)pyridin-2-amine] | 0.1 to 1 µg/mL | > 1 µg/mL | 0.1 to 1 µg/mL (≈ 0.291 to 2.91 µM)
Nc1ncccc1-c1cc(Cc2ccc(COc3cccc4ccccc34)cc2)no1 [compound 24, 3-(3-(4-((naphthalen-1-yloxy)methyl)benzyl)isoxazol-5-yl)pyridin-2-amine] | > 1 µg/mL | > 1 µg/mL | > 1 µg/mL
Nc1ncccc1-c1cc(Cc2ccc(COc3ccc(Cl)c4ccccc34)cc2)no1 [compound 25, 3-(3-(4-(((4-chloronaphthalen-1-yl)oxy)methyl)benzyl)isoxazol-5-yl)pyridin-2-amine] | > 1 µg/mL | > 1 µg/mL | > 1 µg/mL
Cc1cnc(COc2ccc(Cc3cc(-c4cccnc4N)on3)cc2)nc1 [compound 29, 3-(3-(4-((5-methylpyrimidin-2-yl)methoxy)benzyl)isoxazol-5-yl)pyridin-2-amine] | 0.1 to 1 µg/mL | > 1 µg/mL | 0.1 to 1 µg/mL (≈ 0.268 to 2.68 µM)
Cc1nccc(NCc2ccc(Cc3cc(-c4cccnc4N)on3)cc2)n1 [compound 33, N-(4-((5-(2-aminopyridin-3-yl)isoxazol-3-yl)methyl)benzyl)-2-methylpyrimidin-4-amine] | > 1 µg/mL | > 1 µg/mL | > 1 µg/mL
Nc1ncccc1-c1cc(Cc2ccc(OCC3COC3)nc2)no1 [compound 44, 3-(3-((6-(oxetan-3-ylmethoxy)pyridin-3-yl)methyl)isoxazol-5-yl)pyridin-2-amine] | > 1 µg/mL | > 1 µg/mL | 0.1 to 1 µg/mL (≈ 0.296 to 2.96 µM)
Cn1ccc(COc2ccc(Cc3cc(-c4cccnc4N)on3)cn2)n1 [compound 45, 3-(3-((6-((1-methyl-1H-pyrazol-3-yl)methoxy)pyridin-3-yl)methyl)isoxazol-5-yl)pyridin-2-amine] | 0.1 to 1 µg/mL | > 1 µg/mL | 0.1 to 1 µg/mL (≈ 0.276 to 2.76 µM)
Cn1cc(COc2ccc(Cc3cc(-c4cccnc4N)on3)cn2)cn1 [compound 49, 3-(3-((6-((1-methyl-1H-pyrazol-4-yl)methoxy)pyridin-3-yl)methyl)isoxazol-5-yl)pyridin-2-amine] | > 1 µg/mL | > 1 µg/mL | > 1 µg/mL
Cc1occc1COc1ccc(Cc2cc(-c3cccnc3N)on2)cn1 [compound 52, 3-(3-((6-((2-methylfuran-3-yl)methoxy)pyridin-3-yl)methyl)isoxazol-5-yl)pyridin-2-amine] | 0.1 to 1 µg/mL | > 1 µg/mL | 0.1 to 1 µg/mL (≈ 0.276 to 2.76 µM)
CC(Oc1ccc(Cc2cc(-c3cccnc3N)on2)cn1)c1ccccc1F (stereo not drawn) [compound 56, 3-(3-((6-(1-(2-fluorophenyl)ethoxy)pyridin-3-yl)methyl)isoxazol-5-yl)pyridin-2-amine] | 0.1 to 1 µg/mL | > 1 µg/mL | 0.1 to 1 µg/mL (≈ 0.256 to 2.56 µM)
Nc1ncccc1-c1cc(Cc2ccc(Nc3cccc(F)c3)nc2)no1 [compound 59, 5-((5-(2-aminopyridin-3-yl)isoxazol-3-yl)methyl)-N-(3-fluorophenyl)pyridin-2-amine] | 0.1 to 1 µg/mL | > 1 µg/mL | 0.1 to 1 µg/mL (≈ 0.277 to 2.77 µM)
c1ccc(Sc2ccc(Cn3cc(-c4cccnc4)cn3)cn2)cc1 [compound 66, 2-(phenylthio)-5-((4-(pyridin-3-yl)-1H-pyrazol-1-yl)methyl)pyridine] | 0.1 to 1 µg/mL | > 1 µg/mL | 0.1 to 1 µg/mL (≈ 0.29 to 2.9 µM)
Nc1ncccc1-c1cnn(Cc2ccc(Sc3ccccc3)nc2)c1 [compound 67, 3-(1-((6-(phenylthio)pyridin-3-yl)methyl)-1H-pyrazol-4-yl)pyridin-2-amine] | 0.1 to 1 µg/mL | > 1 µg/mL | 0.1 to 1 µg/mL (≈ 0.278 to 2.78 µM)
Nc1ccc(-c2cnn(Cc3ccc(OCc4ccccc4)nc3)c2)cn1 [compound 68, 5-(1-((6-(benzyloxy)pyridin-3-yl)methyl)-1H-pyrazol-4-yl)pyridin-2-amine] | 0.1 to 1 µg/mL | > 1 µg/mL | 0.1 to 1 µg/mL (≈ 0.28 to 2.8 µM)
CC1=C(Oc2ccc(Cc3cc(-c4cccnc4N)on3)cn2)C(=O)C(C)O1 (stereo not drawn) [compound 71, 4-((5-((5-(2-aminopyridin-3-yl)isoxazol-3-yl)methyl)pyridin-2-yl)oxy)-2,5-dimethylfuran-3(2H)-one] | > 1 µg/mL | > 1 µg/mL | > 1 µg/mL
N#Cc1ccc(COc2ccc(Cc3cc(-c4cccnc4N)on3)cn2)cc1 [compound 76, 4-(((5-((5-(2-aminopyridin-3-yl)isoxazol-3-yl)methyl)pyridin-2-yl)oxy)methyl)benzonitrile] | 0.1 to 1 µg/mL | 0.1 to 1 µg/mL | > 1 µg/mL
